Data: patent US20080181877A1, “Method For Monitoring the Effect of Compounds on Foxc2 Expression” (LEANGENE AB, C/O CIT Ekonomiservice AB, priority 2006, published 2008)

Legend:
Foxc2 expression [1] = assay: High through-put screening: beta-gal activity (Beta-glo kit) in Foxc2nLacZ MEFs differentiated into adipocytes; format: cell-based, mouse
Experimental: Primary MEFs from both wild type and Foxc2nLacZ knock-in mice were maintained in DMEM supplied with 10% FBS and antibiotics. For differentiation into adipocytes the MEFs were grown until confluency and then stimulated (Day 0) with a differentiation media (DMEM, 10% FBS, antibiotics, 1 uM dexamethasone, 0.5 mM isobutyl-methyl-xanthine, 10 ug/mL insulin, 20 ng/ml FGF (all from Sigma), and 1 uM rosiglitazone (Alexis)). New differentiation media was added at day 3. At day 5 the differentiation media was removed and the cells were cultured in a media containing DMEM, 10% FBS, antibiotics, 10 ug/mL insulin, 1 uM rosiglitazone, and 20 ng/ml FGF. This media was changed every second day. From day 10 the cells were kept DMEM supplied with 10% FBS and antibiotics for 24 hours as a wash out period before initiating the experiments.
Foxc2nLacZ MEFs were plated onto gelatine coated 96 well plates. Differentiation was initialized after confluence according to protocol. […] After a wash out period for 24 hours the cells were subjected to different compounds for the indicated time points and subsequently induction of β-gal enzyme activity was measured using the Beta-glo kit (Promega) and a luminometric plate reader. Confluent cells differentiated into adipocytes were detected by increased X-gal staining (FIG. 5a-d), Foxc2nLacZ protein levels increased transiently during the differentiation process. […]

Foxc2 expression [2] = assay: Monitoring Foxc2 expression in MEFs by X-gal staining; format: cell-based, mouse; details: acute treatment; MEFs from heterozygous Foxc2nLacZ E13.5 embryos
Experimental: FIG. 4 specifies the expression of Foxc2 during adipocyte differentiation of mouse embryonic fibroblasts (MEFs), which were isolated from Foxc2nLacZ±E13.5 embryos as well as wt littermates as control. The MEFs were treated with adipocyte differentiation mix (0.5 mM IBMX, 0.25 μM Dex and 10 μg/mL insulin) and X-gal stained at different time points after start of differentiation. Expression of Foxc2 increases during the course of adipocyte differentiation as judge by increasing β-galactosidase activity.
MEFs were isolated from E13.5 embryos from Foxc2nLacZ±heterozygous intercrosses and genotyped by PCR on DNA from the tail. The head, limbs and viscera were removed from embryos and the remains were minced with a razor blade and incubated in 0.25% trypsin, 0.1% EDTA for 1 h at 37° C. The cell suspension was plated in DMEM containing 10% fetal calf serum and antibiotics (100 units of penicillin and 100 μg/mL streptomycin). Once the cultures reached confluency, 1×10^6 cells were plated on 10-cm tissue culture plates (Falcon) and considered passage 0.
A cell based high-throughput screening system has been established by isolation of MEFs from heterozygous Foxc2nLacZ±E13.5 embryos as well as from wt embryos as a control.

`CCCCCCCCCCCCCC(=O)O[C@@H]1[C@@H](C)[C@@]2(O)[C@@H](C=C(CO)C[C@]3(O)C(=O)C(C)=C[C@@H]23)[C@@H]2C(C)(C)[C@]12OC(C)=O` [TPA, 12-O-tetradecanoylphorbol-13-acetate] was tested, and the beta-gal activity (Foxc2 expression [1]; Foxc2nLacZ MEFs differentiated into adipocytes, 96 well plates, 50 μg per well at 0 h, acute treatment, Beta-glo kit) was “increase in beta-gal activity” and the “levels of reporter gene over time” value (Foxc2 expression [1]; single dose, gene construct with in frame fusion of Foxc2 with a reporter gene) was “moderate increasing of the levels of reporter gene remaining for long periods at similar levels”.

In the case of TNFα, the “Foxc2nLacZ protein levels (X-gal staining)” value (Foxc2 expression [2]) is reported as “levels could be induced”.

For “insulin: Insulin, known to be an inducer of Foxc2, may be utilized as a control”, the “Foxc2nLacZ protein levels (X-gal staining)” value (Foxc2 expression [2]) was “levels could be induced”.
